Data set [1] has as its system dopaminergic neurons in mouse brain. Nature of the data set: MPTP animal model of Parkinson's disease, mazindol binding. The protocol:
This model is now widely accepted in the art and is used for evaluating potential therapeutic agents for this disease.
Tritiated mazindol was used for binding studies on samples of the globus pallidus, caudate nucleus, and striatum of mouse brain according to conventional methods; specific binding of tritiated mazindol was determined autoradiographically or by membrane binding (specific binding to the membrane fraction). The experiment was performed over a 7 day period. Mice in the MPTP group were treated […] with MPTP alone (40 mg/kg each day on days 1 and 2). […] The animals were sacrificed after 7 days.
MPTP in mice. Adult male CFW mice (25-33 g) were administered two injections of MPTP dissolved in normal saline (40 mg/kg, s.c.) 24 hours apart. […] Animals were sacrificed 7 days after the first MPTP injection, and neuronal pathology was assessed by the binding of ^3H-mazindol, a ligand for the dopamine transporter, to […] frozen brain sections or to striatal homogenates.

Data set [2] can be described thus: C7 inactivation in H2O2, HPLC. The format is physicochemical. The protocol:
Where indicated, 1 mM ABTS was also present. Components were mixed and, after various incubations times, a 30 μl aliquot was injected onto the HPLC. The mixtures were chromatographed on an octadecyl-silica column using a mobile phase consisting of 60% methanol:40% 0.1 M NaCl and a flow rate of 1 ml/min. […] A third component, with a retention time of 4.8 min, was detectable under some conditions; its appearance and disappearance was monitored but it was not further analyzed. In this system, ABTS and its oxidized product had retention times of 3.4 and 3.1-min, respectively, well resolved from the peaks of interest. Absorbance spectra collected during each run allowed the identity of C7 and salicylaldehyde to be verified. All peaks were integrated based upon their absorbance at 240 nm. The results are expressed as the percentage of maximum peak area. […] For the two putative breakdown products, this is equivalent to the largest peak observed during the course of the ˜2000 sec incubation period.

Data set [3] in a line: SOD activity, cytochrome c as acceptor, IC50 (Example 2). To be noted: read-out: SOD activity IC50 (half-maximally active concentration). The format is biochemical. Here is the method:
Superoxide dismutase (SOD) activity was assayed by following the inhibition of the reduction of an electron acceptor molecule in the presence of the free-radical generating system xanthine/xanthine oxidase (McCord et al. (1973) Superoxide and Superoxide Dismutase in “Oxidases and Related Redox Systems, vol. I, King et al. eds., University Park press, Baltimore, pp. 51-76). The assay mixture consisted of 50 mM sodium phosphate, pH 7.8, 120 μM xanthine, 0.2 units/ml xanthine oxidase, with acceptor molecule and salen manganese compound, as indicated. Assays were conducted at 27±0.2° C. using a water-jacketed cell holder in a Beckman DU7400 spectrophotometer. In most cases, oxidized cytochrome c, at 0.13 mg/ml, was employed as acceptor and its reduction was monitored spectrophotometrically at 550 nm. In some experiments, nitroblue tetrazolium (NBT), at 80 μM, was substituted for cytochrome c as the acceptor. NBT reduction was also monitored at 550 nm. An estimated extinction coefficient for NBT reduction, 20,800 M^−1cm^−1, determined empirically by exhaustive reduction of NBT in the reaction mixture described above, was employed where indicated. This value agreed well with reported extinction coefficients for reduced tetrazolium dyes. […] Conversion of xanthine to urate was calculated using ε290's of […] for urate and 4050 M^−1cm^−1 for xanthine. […]

Another data set concerns Hippocampal slices. Nature of the data set: Anoxia in hippocampal slices, EPSP recovery. The conditions noted are these: C7 50 μM. The format is cell-based, Sprague-Dawley rats. The text has this: Anoxia in hippocampal slices. […] A glass recording micropipet was positioned in CA1 stratum radiatum to record excitatory postsynaptic potential (EPSPs) generated by electrical stimulation of the Schaffer-commissural pathway by a bipolar stimulation electrode at a frequency of 0.033 Hz. During anoxic episodes, the oxygen supply was replaced with 100% N2 gas. N2 was supplied for 90 seconds following electrical silence after which O2 was reintroduced. Recovery of EPSPs (both slope and amplitude) was recorded for 50 minutes, at which time the final viability of the slices was determined, with viability being defined as the ability of the slice to generate a 3 mV EPSP.

In data set [4] the test system is acidosis-induced mucosal injury. Nature of the data set: In vitro model for acidosis-induced mucosal injury.
Where [5] appears, read: 100 μM C7, 1 mM H2O2, with 1 mM ABTS.

Molecules are shown by their SMILES.

For the molecule `[Cl][Mn]1[O]c2ccccc2C=NCCN=Cc2ccccc2[O]1` [Compound C7], in data set [1] (C7 33 mg/kg i.p. days 1-3, MPTP 40 mg/kg days 1 and 2, versus MPTP alone), the “number of surviving dopaminergic neurons in mice treated with MPTP” value is recorded as “approximately doubled”. Moreover, the “protection against the reduction in 3H-mazindol binding” value in data set [1] (C7 3×33 mg/kg, i.p., MPTP 2×40 mg/kg, s.c.) was “significant (p<0.05) degree of protection”. Moreover, the “protection against the reduction in 3H-mazindol binding measured in striatal homogenates” value in data set [1] (C7 3×33 mg/kg, i.p., MPTP 2×40 mg/kg, s.c., panel B) was “significant protection”. In addition, the “number of dopaminergic neurons in regions of the mouse brain, compound alone” value in data set [1] (C7 alone, no MPTP) is reported as “not adversely affected”. In addition, the “half life of the C7 peak” value in data set [2] (100 μM C7, 1 mM H2O2, pH 8.1, absence of ABTS) was about 40 s. In data set [2] (setting [5]), the “C7 peak that disappeared rapidly” value is “about 20%” and the “C7 remaining over the entire ~2000 sec incubation” value is reported as 80%. Further, the IC50 in data set [3] amounted to 3.2 µM. In addition, the “protection against anoxia-induced decrease in synaptic response in CA1 (EPSP slope and amplitude)” value with Hippocampal slices is on record as “significant degree of protection”. Moreover, in data set [4], the “protection in acidosis-induced mucosal injury” value is listed as “protective”.
